Measured values as given in PMC2949700, “Identification of the full set of Listeria monocytogenes penicillin-binding proteins and characterization of PBPD2 (Lmo2812)” (BMC Microbiology, 2010).
In brackets after ≈: the same amount, converted by molar mass. Marks after values point to notes of the source that are not given here.

Tests used:
[1] = target: T1, purified recombinant Lmo2812 (PBPD2) (Listeria monocytogenes, UniProt Q8Y3M3); assay: Fluorescent antibiotic binding assay, purified recombinant protein
Method: The purified protein was incubated with different concentrations of Boc-FL (0.25, 0.5, 2.5, 5 and 10 μM). […] Lmo2812 was the major band on gels, with a slower migrating minor band thought to represent a dimeric form (Figure 2).
Figure 2 Purified recombinant L. monocytogenes Lmo2812 (PBPD2) identified with Boc-FL. Samples of purified recombinant Lmo2812 (10 μg) were labeled with Boc-FL at concentrations of 0 (1), 0.25 (2), 0.5 (3), 2.5 (4), 5 (5) and 10 μM (6). Labeled bands were detected directly on the gel, quantified and their molecular mass estimated. The affinity of the bands for Boc-FL (Kd50) was estimated from their fluorescence as a function of the concentration of Boc-FL. The names of the bands are indicated on the right, and the positions of the molecular weight markers are shown on the left.
The β-lactam binding capacity of Lmo2812 was evaluated with three different fluorescent antibiotics: Boc-FL, Boc-650 and Amp-430.
Total whole cell proteins or purified recombinant protein resuspended in 50 mM NaPi buffer, pH 7.0 were labeled by incubation at 37°C for 30 min with different concentrations of Boc-FL (Molecular Probes), Boc-650 (Molecular Probes) or Amp-430 (prepared in the laboratory by coupling ampicillin to Alexa-430), and then separated on a 10% acrylamide, 3.3% cross-linkage SDS-PAGE gel. To avoid degradation of the fluorescent β-lactam antibiotics by β-lactamases, samples were incubated at 37°C with clavulanic acid at a final concentration of 10 μg/ml or EDTA at a final concentration of 10 mM for 30 min before labeling, where appropriate. Competition experiments were carried out by preincubation of the samples with ampicillin (100 μg/ml) for 30 min at 37°C, before adding the fluorescent antibiotic. The samples were then further incubated for 30 min at 37°C. PBPs were visualized directly on the polyacryloamide gel by fluorescence using a Typhoon 9410 imager (Amersham Biosciences) with excitation wavelengths of 588, 633 or 457 nm and emission filters 520BP40, 670BP30 or 555BP20 for Boc-FL, Boc-650 and Amp-430, respectively. […]

PBPB1 (PBP3) [2] = target: T2, PBPB1 (PBP3) (Listeria monocytogenes, UniProt Q8Y763); assay: Fluorescent antibiotic binding assay, whole cells; details: read-out: Boc-FL Kd50, 30 min at 37°C, estimated from band fluorescence as a function of Boc-FL concentration
Method: (§1) PBPs form a covalent complex with β-lactam antibiotics. When fluorescent β-lactams are employed, these proteins can be visualized immediately following SDS-PAGE [17]. Total protein from whole cells or a cell wall extract of L. monocytogenes EGD were incubated with different concentrations of Boc-FL, Bocillin-650 (Boc-650) or Ampicillin-Alexa430 (Amp-430) for 30 min at 37°C. The highest affinity binding was obtained with Boc-FL and bands identified using this compound in the whole cell assay are shown in Figure 1. PBPs A1, B2, B1, A2, B3, D1, C1 and C2 were also identified with Boc-650 and Amp-430 (data not shown). Two types of non-specific band were also observed (lane 1, 0 μM Boc-FL) and they represent the natural intrinsic fluorescence of other proteins in the cell extract. However, the bands that are absent in lane 8 (ampicillin 100 μg/ml, 50 μM Boc-FL) compared with lane 7 (50 μM Boc-FL) represent specific PBPs. Those bands that completely disappeared (PBPB1, PBPD1), partially disappeared (PBPA1, PBPB2, PBPA2 and PBPB3) or remained present (PBPC1 and PBPC2) reflect total, partial and no binding of ampicillin, respectively. The results of an experiment examining saturation with 50 μM Boc-FL, the binding capacity of each PBP for Boc-FL and the affinity of the PBPs for ampicillin (Amp) are presented in Table 2. These assays involved incubation of whole cell with ampicillin followed by a similar incubation with Boc-FL. Therefore, only those PBPs with no or low affinity for ampicillin would be able to bind Boc-FL during the second incubation. The deacylation rate for the PBPs is actually extremely low, which permitted their detection in the gel for several hours after binding.
(§2) Figure 1 Complete set of PBPs identified with Boc-FL in whole cells of L. monocytogenes. Samples of whole cells (100 μg of total protein) were labeled with Boc-FL at concentrations of 0 (1), 0.5 (2), 1 (3), 2.5 (4), 5 (5), 10 (6), 50 μM (7) and 50 μM plus 100 μg/ml ampicillin (8). Labeled bands were detected directly on the gel, quantified, and their molecular mass estimated. The affinity of each band for Boc-FL (ID50) was estimated from their fluorescence as a function of the concentration of Boc-FL. The name of the PBP corresponding to each band is indicated on the right, while the positions of molecular weight markers (bars) and unspecific bands (arrowheads) are shown on the left.
(§3) Total whole cell proteins or purified recombinant protein resuspended in 50 mM NaPi buffer, pH 7.0 were labeled by incubation at 37°C for 30 min with different concentrations of Boc-FL (Molecular Probes), Boc-650 (Molecular Probes) or Amp-430 (prepared in the laboratory by coupling ampicillin to Alexa-430), and then separated on a 10% acrylamide, 3.3% cross-linkage SDS-PAGE gel. To avoid degradation of the fluorescent β-lactam antibiotics by β-lactamases, samples were incubated at 37°C with clavulanic acid at a final concentration of 10 μg/ml or EDTA at a final concentration of 10 mM for 30 min before labeling, where appropriate. Competition experiments were carried out by preincubation of the samples with ampicillin (100 μg/ml) for 30 min at 37°C, before adding the fluorescent antibiotic. […] PBPs were visualized directly on the polyacryloamide gel by fluorescence using a Typhoon 9410 imager (Amersham Biosciences) with excitation wavelengths of 588, 633 or 457 nm and emission filters 520BP40, 670BP30 or 555BP20 for Boc-FL, Boc-650 and Amp-430, respectively.

PBPA2 (PBP4) [3] = target: T3, PBPA2 (PBP4) (Listeria monocytogenes, UniProt Q8Y547); assay: Fluorescent antibiotic binding assay, whole cells; details: read-out: Boc-FL Kd50, 30 min at 37°C, estimated from band fluorescence as a function of Boc-FL concentration
Method: as §1, §2, §3

PBPD1 (PBP5) [4] = target: T4, PBPD1 (PBP5) (Listeria monocytogenes, UniProt Q8Y3S7); assay: Fluorescent antibiotic binding assay, whole cells; details: read-out: Boc-FL Kd50, 30 min at 37°C, estimated from band fluorescence as a function of Boc-FL concentration
Method: as §1, §2, §3

PBPA1 (PBP1) [5] = target: T5, PBPA1 (PBP1) (Listeria monocytogenes, UniProt Q8Y610); assay: Fluorescent antibiotic binding assay, whole cells; details: read-out: Boc-FL Kd50, 30 min at 37°C, estimated from band fluorescence as a function of Boc-FL concentration
Method: as §1, §2, §3

PBPB2 (PBP2) [6] = target: T6, PBPB2 (PBP2) (Listeria monocytogenes, UniProt Q8Y5L8); assay: Fluorescent antibiotic binding assay, whole cells; details: read-out: Boc-FL Kd50, 30 min at 37°C, estimated from band fluorescence as a function of Boc-FL concentration
Method: as §1, §2, §3

[7] = system: L. monocytogenes KD2812 (Δlmo2812); assay: Microdilution MIC test; assay type: cell-based, Listeria monocytogenes; details: Listeria monocytogenes
Method: (§4) To determine the effect of these mutations on cell morphology, the strains EGD, KD2812 and DA07 were analyzed by scanning electron microscopy (SEM). […] At 30°C the average cell length compared to strain EGD was increased by 38.5% in strain KD2812 and by 44.8% in the double mutant strain. The respective values at 37°C were 37.5% and 43%. […] The variant cells were characteristically curved with a bend at either one or both ends and subterminal constrictions. The number of cells with altered morphology was increased as the growth temperature was raised (Figure 3; b, e, h). Cell bending was more pronounced in the population of AD07 mutant cells (Figure 3; c, f, i). […] Similar results were found for a mutant of L. monocytogenes lacking PBP5 (PBPD1) examined in a previous study.
(§5) Microdilution tests were performed using cation-adjusted Mueller-Hinton broth (CAMHB) supplemented with 5% lysed horse blood containing two-fold dilutions of the antimicrobial agents. These mixtures were dispensed in 100 μl aliquots into plastic 96-well plates. To prepare inocula, a single colony of each strain from a TSBYE plate was transferred into 10 ml of the same medium and incubated for 24 h at 37°C. These cultures were serially diluted in CAMHB to a concentration of 10^5 cfu/ml and 100 μl aliquots were added to the microdilution plates. The plates were incubated for 18-20 h at 37°C before the reading of the MIC endpoints. The MIC was the lowest antibiotic concentration at which visible growth was inhibited.

L. monocytogenes EGD = assay: Microdilution MIC test; assay type: cell-based, Listeria monocytogenes; details: Listeria monocytogenes
Method: as §4, §5

[8] = system: L. monocytogenes AD07 (Δlmo2812 Δlmo2754); assay: Microdilution MIC test; assay type: cell-based, Listeria monocytogenes; details: Listeria monocytogenes
Method: as §4, §5

[9] = target: T1, purified recombinant Lmo2812 (PBPD2); assay: Competition binding assay (ampicillin preincubation, then Boc-FL), purified recombinant protein; details: purified recombinant Lmo2812 preincubated with 100 μg/ml ampicillin
Method: (§6) Total whole cell proteins or purified recombinant protein resuspended in 50 mM NaPi buffer, pH 7.0 were labeled by incubation at 37°C for 30 min with different concentrations of Boc-FL (Molecular Probes), Boc-650 (Molecular Probes) or Amp-430 (prepared in the laboratory by coupling ampicillin to Alexa-430), and then separated on a 10% acrylamide, 3.3% cross-linkage SDS-PAGE gel. To avoid degradation of the fluorescent β-lactam antibiotics by β-lactamases, samples were incubated at 37°C with clavulanic acid at a final concentration of 10 μg/ml or EDTA at a final concentration of 10 mM for 30 min before labeling, where appropriate. Competition experiments were carried out by preincubation of the samples with ampicillin (100 μg/ml) for 30 min at 37°C, before adding the fluorescent antibiotic. The samples were then further incubated for 30 min at 37°C. PBPs were visualized directly on the polyacryloamide gel by fluorescence using a Typhoon 9410 imager (Amersham Biosciences) with excitation wavelengths of 588, 633 or 457 nm and emission filters 520BP40, 670BP30 or 555BP20 for Boc-FL, Boc-650 and Amp-430, respectively.

PBPC1 = PBPC1 (Listeria monocytogenes, UniProt Q8Y9I8); assay: Competition binding assay (ampicillin preincubation, then Boc-FL), whole cells
Method: as §1, §2, §6

PBPC2 = PBPC2 (Listeria monocytogenes, UniProt Q8Y5Y7); assay: as above
Method: as §1, §2, §6

PBPB3 = PBPB3 (Listeria monocytogenes, UniProt Q8Y9T2); assay: as above
Method: as §1, §2, §6

PBPB1 (PBP3) [10] = target: T2, PBPB1 (PBP3); assay: as above
Method: as §1, §2, §6

PBPA2 (PBP4) [11] = target: T3, PBPA2 (PBP4); assay: as above
Method: as §1, §2, §6

PBPD1 (PBP5) [12] = target: T4, PBPD1 (PBP5); assay: as above
Method: as §1, §2, §6

PBPA1 (PBP1) [13] = target: T5, PBPA1 (PBP1); assay: as above
Method: as §1, §2, §6

PBPB2 (PBP2) [14] = target: T6, PBPB2 (PBP2); assay: as above
Method: as §1, §2, §6

[15] = ampicillin 100 μg/ml, 50 μM Boc-FL, Figure 1 lane 8 vs lane 7
[16] = preincubated with 100 μg/ml ampicillin, then 50 μM Boc-FL

T2 sequence (Q8Y763 entry or part of it): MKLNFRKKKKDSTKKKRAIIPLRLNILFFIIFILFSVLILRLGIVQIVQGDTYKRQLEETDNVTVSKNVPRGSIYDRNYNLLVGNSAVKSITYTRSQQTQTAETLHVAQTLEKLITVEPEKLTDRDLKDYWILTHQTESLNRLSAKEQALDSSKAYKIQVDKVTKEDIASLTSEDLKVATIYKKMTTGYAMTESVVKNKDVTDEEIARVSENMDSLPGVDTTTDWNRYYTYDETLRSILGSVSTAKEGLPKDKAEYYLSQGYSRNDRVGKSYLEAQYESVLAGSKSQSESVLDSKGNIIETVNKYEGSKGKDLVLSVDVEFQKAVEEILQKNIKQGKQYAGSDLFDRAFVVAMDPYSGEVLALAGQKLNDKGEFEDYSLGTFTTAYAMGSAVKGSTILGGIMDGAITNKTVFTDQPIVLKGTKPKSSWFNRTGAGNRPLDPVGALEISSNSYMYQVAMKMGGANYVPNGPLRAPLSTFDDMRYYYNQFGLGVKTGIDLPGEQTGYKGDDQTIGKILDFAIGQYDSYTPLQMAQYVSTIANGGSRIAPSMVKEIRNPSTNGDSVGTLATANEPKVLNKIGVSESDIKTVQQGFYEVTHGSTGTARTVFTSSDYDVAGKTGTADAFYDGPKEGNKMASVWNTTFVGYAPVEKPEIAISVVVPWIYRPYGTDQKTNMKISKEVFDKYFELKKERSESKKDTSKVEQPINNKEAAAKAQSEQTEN
T4 sequence (Q8Y3S7 entry or part of it): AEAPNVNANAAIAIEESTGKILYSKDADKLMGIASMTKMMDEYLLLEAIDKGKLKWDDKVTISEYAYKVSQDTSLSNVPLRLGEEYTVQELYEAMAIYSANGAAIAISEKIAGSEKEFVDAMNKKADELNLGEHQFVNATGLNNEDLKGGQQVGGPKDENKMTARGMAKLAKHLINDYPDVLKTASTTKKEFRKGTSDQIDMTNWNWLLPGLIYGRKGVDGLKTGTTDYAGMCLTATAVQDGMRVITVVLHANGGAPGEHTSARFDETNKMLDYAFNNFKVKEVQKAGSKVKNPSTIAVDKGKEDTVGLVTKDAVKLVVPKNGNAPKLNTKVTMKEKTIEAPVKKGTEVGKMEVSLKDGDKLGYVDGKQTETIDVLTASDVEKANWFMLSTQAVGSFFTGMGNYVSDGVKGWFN
T3 sequence (Q8Y547 entry or part of it): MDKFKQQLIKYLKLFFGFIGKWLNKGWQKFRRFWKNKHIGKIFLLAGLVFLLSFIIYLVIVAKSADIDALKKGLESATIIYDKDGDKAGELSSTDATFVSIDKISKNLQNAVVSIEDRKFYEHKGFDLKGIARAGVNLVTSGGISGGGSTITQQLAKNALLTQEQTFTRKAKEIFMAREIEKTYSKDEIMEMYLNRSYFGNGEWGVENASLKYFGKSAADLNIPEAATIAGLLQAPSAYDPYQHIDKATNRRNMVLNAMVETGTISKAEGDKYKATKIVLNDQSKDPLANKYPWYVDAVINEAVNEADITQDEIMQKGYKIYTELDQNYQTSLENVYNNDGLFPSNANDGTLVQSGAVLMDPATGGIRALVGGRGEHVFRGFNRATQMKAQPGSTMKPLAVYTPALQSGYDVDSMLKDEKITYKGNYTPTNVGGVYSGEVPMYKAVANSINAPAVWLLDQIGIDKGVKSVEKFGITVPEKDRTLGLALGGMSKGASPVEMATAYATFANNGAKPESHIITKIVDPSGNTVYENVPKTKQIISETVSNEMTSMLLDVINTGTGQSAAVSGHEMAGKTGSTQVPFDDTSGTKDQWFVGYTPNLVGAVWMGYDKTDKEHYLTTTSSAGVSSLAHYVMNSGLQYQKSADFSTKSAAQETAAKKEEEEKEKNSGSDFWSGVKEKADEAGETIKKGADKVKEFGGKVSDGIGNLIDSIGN
T5 sequence (Q8Y610 entry or part of it): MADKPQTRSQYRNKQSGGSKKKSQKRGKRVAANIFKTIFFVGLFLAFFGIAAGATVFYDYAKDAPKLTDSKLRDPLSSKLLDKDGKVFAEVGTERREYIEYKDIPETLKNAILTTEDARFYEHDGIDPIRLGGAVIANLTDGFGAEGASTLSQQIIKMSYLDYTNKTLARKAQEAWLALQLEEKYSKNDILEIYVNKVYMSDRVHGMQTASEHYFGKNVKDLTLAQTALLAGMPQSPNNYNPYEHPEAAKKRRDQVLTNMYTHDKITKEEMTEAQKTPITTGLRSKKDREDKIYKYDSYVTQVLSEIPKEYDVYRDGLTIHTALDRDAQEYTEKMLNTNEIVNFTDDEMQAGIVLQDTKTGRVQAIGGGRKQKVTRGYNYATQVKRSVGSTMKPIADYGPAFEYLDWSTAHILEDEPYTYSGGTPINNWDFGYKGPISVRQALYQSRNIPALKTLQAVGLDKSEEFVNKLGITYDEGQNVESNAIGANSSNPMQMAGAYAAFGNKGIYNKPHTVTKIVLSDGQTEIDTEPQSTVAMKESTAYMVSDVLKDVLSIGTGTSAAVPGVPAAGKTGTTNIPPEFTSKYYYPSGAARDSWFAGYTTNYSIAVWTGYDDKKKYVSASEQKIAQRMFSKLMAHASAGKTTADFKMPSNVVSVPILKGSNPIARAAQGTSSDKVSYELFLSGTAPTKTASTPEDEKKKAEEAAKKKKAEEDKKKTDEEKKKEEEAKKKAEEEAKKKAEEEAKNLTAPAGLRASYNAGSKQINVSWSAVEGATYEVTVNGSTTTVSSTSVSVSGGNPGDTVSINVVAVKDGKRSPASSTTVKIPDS
T6 sequence (Q8Y5L8 entry or part of it): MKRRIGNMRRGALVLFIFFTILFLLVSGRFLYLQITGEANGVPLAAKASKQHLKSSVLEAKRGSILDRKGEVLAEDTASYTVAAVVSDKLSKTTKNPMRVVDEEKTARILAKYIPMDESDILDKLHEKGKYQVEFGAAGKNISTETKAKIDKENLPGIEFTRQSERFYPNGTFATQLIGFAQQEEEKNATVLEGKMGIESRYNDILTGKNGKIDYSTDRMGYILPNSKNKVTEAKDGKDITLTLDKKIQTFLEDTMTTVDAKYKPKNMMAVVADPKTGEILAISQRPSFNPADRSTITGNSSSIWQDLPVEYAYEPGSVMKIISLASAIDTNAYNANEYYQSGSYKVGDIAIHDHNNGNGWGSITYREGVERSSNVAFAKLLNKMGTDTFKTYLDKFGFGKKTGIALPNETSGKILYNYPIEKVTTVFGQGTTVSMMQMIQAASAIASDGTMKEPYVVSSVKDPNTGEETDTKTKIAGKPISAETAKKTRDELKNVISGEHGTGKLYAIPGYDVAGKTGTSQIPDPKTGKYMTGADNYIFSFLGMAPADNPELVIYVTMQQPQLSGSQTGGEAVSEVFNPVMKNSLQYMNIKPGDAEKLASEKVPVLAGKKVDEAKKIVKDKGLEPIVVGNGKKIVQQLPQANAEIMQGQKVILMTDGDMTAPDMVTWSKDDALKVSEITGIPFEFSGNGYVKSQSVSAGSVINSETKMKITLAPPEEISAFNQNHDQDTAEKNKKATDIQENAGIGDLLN
T1 sequence (Q8Y3M3 entry or part of it): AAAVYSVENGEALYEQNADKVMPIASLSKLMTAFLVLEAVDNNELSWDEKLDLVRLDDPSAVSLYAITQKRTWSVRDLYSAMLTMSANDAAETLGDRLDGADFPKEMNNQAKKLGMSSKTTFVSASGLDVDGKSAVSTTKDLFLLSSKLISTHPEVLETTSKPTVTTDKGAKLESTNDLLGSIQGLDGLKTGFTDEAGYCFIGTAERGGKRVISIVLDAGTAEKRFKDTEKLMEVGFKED
PBPC2, sequence (Q8Y5Y7 entry or part of it): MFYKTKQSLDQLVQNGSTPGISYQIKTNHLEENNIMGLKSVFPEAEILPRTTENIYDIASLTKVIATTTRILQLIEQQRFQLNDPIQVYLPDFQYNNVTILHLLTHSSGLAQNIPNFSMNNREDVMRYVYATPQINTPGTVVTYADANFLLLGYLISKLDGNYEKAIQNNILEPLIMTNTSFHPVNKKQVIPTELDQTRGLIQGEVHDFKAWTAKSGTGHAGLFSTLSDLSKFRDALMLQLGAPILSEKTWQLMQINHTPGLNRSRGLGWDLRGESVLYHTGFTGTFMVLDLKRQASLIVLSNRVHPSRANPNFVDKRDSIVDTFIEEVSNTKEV
PBPC1, sequence (Q8Y9I8 entry or part of it): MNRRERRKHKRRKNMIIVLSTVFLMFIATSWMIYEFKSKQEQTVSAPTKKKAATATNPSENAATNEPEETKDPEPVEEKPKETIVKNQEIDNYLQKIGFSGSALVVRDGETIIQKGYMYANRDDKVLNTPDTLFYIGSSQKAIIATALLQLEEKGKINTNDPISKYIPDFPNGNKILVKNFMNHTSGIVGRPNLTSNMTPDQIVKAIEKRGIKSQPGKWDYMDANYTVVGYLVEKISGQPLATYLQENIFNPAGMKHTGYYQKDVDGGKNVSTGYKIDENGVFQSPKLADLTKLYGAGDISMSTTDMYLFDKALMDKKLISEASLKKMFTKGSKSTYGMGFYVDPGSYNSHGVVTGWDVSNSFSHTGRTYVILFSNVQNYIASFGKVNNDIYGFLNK

## Cc1cc(C)n2c1C=C1C=CC(CCC(=O)Nc3ccc(OCC(=O)N[C@@H]4C(=O)N5[C@@H]4SC(C)(C)[C@@H]5C(=O)O)cc3)=[N+]1[B-]2(F)F [Boc-FL, Bocillin-FL]
[1]
  Kd: 2500 nM
PBPB1 (PBP3) [2]
  Kd: 250 nM
PBPA2 (PBP4) [3]
  Kd: 250 nM
PBPD1 (PBP5) [4]
  Kd: 5000 nM
PBPA1 (PBP1) [5]
  Kd: > 10000 nM
PBPB2 (PBP2) [6]
  Kd: 250 nM

## CC1(C)S[C@@H]2[C@H](NC(=O)[C@H](N)c3ccccc3)C(=O)N2[C@H]1C(=O)O [ampicillin]
[7]
  MIC: 0.31 µg/mL (≈ 0.887 µM)
L. monocytogenes EGD
  MIC: 0.31 µg/mL (≈ 0.887 µM)
[8]
  MIC: 0.16 µg/mL (≈ 0.458 µM)
[9]
  percentage of Boc-FL binding capacity remaining: 0^b %
PBPC1; [15]
  binding of ampicillin (disappearance of Boc-FL band): no binding
PBPC1; [16]
  percentage of Boc-FL binding capacity remaining: 100%
PBPC2; [15]
  binding of ampicillin (disappearance of Boc-FL band): no binding
PBPC2; [16]
  percentage of Boc-FL binding capacity remaining: 100%
PBPB3; [15]
  binding of ampicillin (disappearance of Boc-FL band): partial
PBPB3; [16]
  percentage of Boc-FL binding capacity remaining: 95%
PBPB1 (PBP3) [10]; Amp at 100 μg/ml
  inhibition of Boc-FL binding: completely inhibited
PBPB1 (PBP3) [10]; [15]
  binding of ampicillin (disappearance of Boc-FL band): total
PBPB1 (PBP3) [10]; [16]
  percentage of Boc-FL binding capacity remaining: 0%
PBPA2 (PBP4) [11]; [15]
  binding of ampicillin (disappearance of Boc-FL band): partial
PBPA2 (PBP4) [11]; [16]
  percentage of Boc-FL binding capacity remaining: 90%
PBPD1 (PBP5) [12]; Amp at 100 μg/ml
  inhibition of Boc-FL binding: completely inhibited
PBPD1 (PBP5) [12]; [15]
  binding of ampicillin (disappearance of Boc-FL band): total
PBPD1 (PBP5) [12]; [16]
  percentage of Boc-FL binding capacity remaining: 0%
PBPA1 (PBP1) [13]; [15]
  binding of ampicillin (disappearance of Boc-FL band): partial
PBPA1 (PBP1) [13]; [16]
  percentage of Boc-FL binding capacity remaining: 95%
PBPB2 (PBP2) [14]; [15]
  binding of ampicillin (disappearance of Boc-FL band): partial
PBPB2 (PBP2) [14]; [16]
  percentage of Boc-FL binding capacity remaining: 90%
